Where two headings read alike, the source gives them in different places.

As usually defined, the IC50 is the concentration at which inhibition is half-maximal. By inhibition is commonly meant the relative decrease from the control value, in per cent.

Common to all, as to format: in vitro ADME
For data set [1], the target named is T1, OAT3 (Homo sapiens, UniProt Q8TCC7).
T1 construct: expressed in transfected cells; host or cells: MDCKII or HEK293
Put plainly: OAT3 uptake transporter inhibition in MDCKII or HEK293 cells. The settings on record: substrate E3S (1 μM). Here is the method:
(§1) In addition, the inhibition potential against efflux transporters (P-glycoprotein (Pgp) and breast cancer resistance protein (BCRP)) and uptake transporters (MATE1, MATE2-K, OATP1B1, OATP1B3, OAT1, OAT3, and OCT2) was assessed using single transporter over-expressed cell monolayers (MDCK II or HEK293) or inside-out vesicles.
(§2) The potential of Compound A to inhibit Pgp or BCRP was tested for bidirectional transport of the probe substrates in Pgp or BCRP-expressed MDCKII and control monolayers at Compound A concentrations of 0.07-5 μM. Pgp and BCR inhibition were tested in inside-out membrane vesicles prepared from HEK293 overexpressing human Pgp and BCR at concentrations of 0.01-9 μM Compound A in the presence of 4 mM MgATP or MgAMP.

Data set [2] has as its system CYP1A2, 2B6, 2C8, 2C9, 2C19, 2D6, and 3A4. Put plainly: Direct and time-dependent inhibition of all CYPs tested in pooled human liver microsomes. The settings on record: HLM. Here is the method: (§3) The induction potential of Compound A on CYP enzymes was assessed in cryopreserved human hepatocytes from three donors. Following treatment for with Compound A at concentrations of 0.03-30 μM for 48 hours, mRNA levels for CYP1A2, 2B6, 2C8, 2C9, 2C19, and 3A4 were determined by semiquantitative real-time polymerase chain reaction (PCR). Test article concentrations during 24-hour incubation were determined. The potential of Compound A to cause direct and time-dependent inhibition (TDI) of the activities of CYP1A2, 2B6, 2C8, 2C9, 2C19, 2D6, and 3A4 was evaluated in pooled human liver microsomes (HLM) at 0.2-15 μM. Probe substrate concentrations around Km were used for direction inhibition and initial TDI assays. For TDI assay, Compound A was pre-incubated with pooled HLM with and without NADPH for 30 minutes prior to incubation with a single concentration of probe substrate.
In general terms: Liver microsomes are a subcellular fraction often used to study metabolism.

The target in data set [3] is CYP3A5 (Homo sapiens, UniProt P20815). Put plainly: Incubation with recombinant human CYP3A5. The protocol:
Metabolite profiling was conducted in incubations of Compound A (2 and 10 μM) with HLM (up to 60 min), human hepatocyte suspension (up to 240 min) and human plasma (up to 360 min). In addition, Compound A (2 μM) was incubated with recombinant human CYP enzymes CYP1A2, CYP2A6, CYP2B6, CYP2C8, CYP2C9, CYP2C19, CYP2D6, CYP2E1, CYP3A4 and CYP3A5.
The DDI potential of Compound A as a victim via CYP mediated pathways was examined in HLM, human hepatocyte suspensions, and human recombinant CYP enzymes.

For data set [4], the target named is T2, CYP2C9 (Homo sapiens, UniProt P11712).
T2 construct: evaluated in pooled human liver microsomes (HLM); from tissue; host or cells: pooled human liver microsomes
Description: Direct and time-dependent CYP2C9 inhibition in pooled human liver microsomes. As to conditions: pooled HLM, substrate Diclofenac 5 μM. Here is the method: as §3

The target of data set [5] is T3, BCRP (Homo sapiens, UniProt Q9UNQ0).
T3 sequence (Q9UNQ0 1-655): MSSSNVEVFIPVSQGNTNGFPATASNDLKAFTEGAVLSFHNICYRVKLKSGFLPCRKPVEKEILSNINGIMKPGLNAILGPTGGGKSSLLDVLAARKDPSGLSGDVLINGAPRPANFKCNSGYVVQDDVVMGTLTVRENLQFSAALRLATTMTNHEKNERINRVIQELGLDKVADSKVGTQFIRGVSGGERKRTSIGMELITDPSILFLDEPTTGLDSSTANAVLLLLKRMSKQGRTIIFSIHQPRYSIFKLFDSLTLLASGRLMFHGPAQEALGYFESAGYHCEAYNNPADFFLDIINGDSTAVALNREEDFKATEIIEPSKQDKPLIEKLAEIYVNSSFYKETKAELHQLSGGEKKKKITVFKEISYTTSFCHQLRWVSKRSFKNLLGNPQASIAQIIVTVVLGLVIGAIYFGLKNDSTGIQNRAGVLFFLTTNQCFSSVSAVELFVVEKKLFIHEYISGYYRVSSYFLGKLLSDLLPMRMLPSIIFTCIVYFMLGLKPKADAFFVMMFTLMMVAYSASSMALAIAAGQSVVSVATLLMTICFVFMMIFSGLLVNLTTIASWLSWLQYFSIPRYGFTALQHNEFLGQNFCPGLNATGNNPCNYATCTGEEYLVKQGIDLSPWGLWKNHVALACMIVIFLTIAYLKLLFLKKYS
Put plainly: BCRP inhibition in inside-out membrane vesicles from HEK293. The settings on record: substrate Rosuvastatin (1 μM). Further details: expressed in transfected cells; host or cells: HEK293 (inside-out membrane vesicles). The protocol:
as §1, §2

Data set [6] addresses T4, CYP2D6 (Homo sapiens, UniProt P10635).
T4 construct: evaluated in pooled human liver microsomes (HLM); from tissue; host or cells: pooled human liver microsomes
Put plainly: Direct and time-dependent CYP2D6 inhibition in pooled human liver microsomes. As to conditions: pooled HLM, substrate Bufuralol 5 μM. Here is the method: as §3

Where [7] appears, read: read-out: IC50, 30 min Pre-incubation.
Where [8] appears, read: read-out: IC50, No Pre-incubation.

T2 sequence (P11712 whole entry): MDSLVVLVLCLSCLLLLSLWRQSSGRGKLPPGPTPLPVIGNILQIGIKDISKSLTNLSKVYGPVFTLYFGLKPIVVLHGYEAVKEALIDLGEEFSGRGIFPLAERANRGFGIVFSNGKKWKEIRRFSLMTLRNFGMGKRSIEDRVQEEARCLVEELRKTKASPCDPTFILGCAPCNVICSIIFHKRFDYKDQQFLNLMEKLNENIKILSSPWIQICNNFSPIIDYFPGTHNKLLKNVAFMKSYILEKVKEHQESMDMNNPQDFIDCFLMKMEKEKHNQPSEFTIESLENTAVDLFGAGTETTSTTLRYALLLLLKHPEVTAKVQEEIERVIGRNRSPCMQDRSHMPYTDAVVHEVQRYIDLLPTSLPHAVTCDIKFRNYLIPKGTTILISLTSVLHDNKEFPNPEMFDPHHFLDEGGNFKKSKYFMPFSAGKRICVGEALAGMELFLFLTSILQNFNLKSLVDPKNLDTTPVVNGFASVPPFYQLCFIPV
T4 sequence (P10635 whole entry): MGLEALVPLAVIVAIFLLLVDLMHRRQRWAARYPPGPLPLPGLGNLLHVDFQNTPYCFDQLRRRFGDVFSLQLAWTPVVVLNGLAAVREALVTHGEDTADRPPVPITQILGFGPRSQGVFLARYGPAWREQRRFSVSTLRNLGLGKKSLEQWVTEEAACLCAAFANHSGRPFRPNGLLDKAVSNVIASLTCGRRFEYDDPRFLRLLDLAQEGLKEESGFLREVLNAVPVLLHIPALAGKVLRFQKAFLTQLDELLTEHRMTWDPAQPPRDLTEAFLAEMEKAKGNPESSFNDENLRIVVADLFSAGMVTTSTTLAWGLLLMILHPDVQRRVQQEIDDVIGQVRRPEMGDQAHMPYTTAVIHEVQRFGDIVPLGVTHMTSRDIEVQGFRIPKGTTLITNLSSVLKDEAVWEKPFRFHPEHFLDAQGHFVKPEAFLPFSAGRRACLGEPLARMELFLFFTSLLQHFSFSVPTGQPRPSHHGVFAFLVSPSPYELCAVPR
T1 sequence (Q8TCC7 whole entry): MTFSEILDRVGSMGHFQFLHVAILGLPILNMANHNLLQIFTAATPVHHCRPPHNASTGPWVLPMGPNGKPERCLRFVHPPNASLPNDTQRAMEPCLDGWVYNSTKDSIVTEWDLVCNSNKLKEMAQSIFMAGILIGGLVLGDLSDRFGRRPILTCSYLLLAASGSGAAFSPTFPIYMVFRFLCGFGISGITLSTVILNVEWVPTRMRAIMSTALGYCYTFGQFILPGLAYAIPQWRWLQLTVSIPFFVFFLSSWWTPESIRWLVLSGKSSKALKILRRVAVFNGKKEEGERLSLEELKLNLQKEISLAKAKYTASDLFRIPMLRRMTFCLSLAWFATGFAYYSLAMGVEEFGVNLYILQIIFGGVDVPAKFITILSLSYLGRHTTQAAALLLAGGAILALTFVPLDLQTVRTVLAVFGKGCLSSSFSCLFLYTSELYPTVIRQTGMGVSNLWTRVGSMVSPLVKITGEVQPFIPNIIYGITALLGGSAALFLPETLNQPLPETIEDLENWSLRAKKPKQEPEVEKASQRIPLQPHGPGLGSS
Sequence of CYP3A5 (P20815 whole entry): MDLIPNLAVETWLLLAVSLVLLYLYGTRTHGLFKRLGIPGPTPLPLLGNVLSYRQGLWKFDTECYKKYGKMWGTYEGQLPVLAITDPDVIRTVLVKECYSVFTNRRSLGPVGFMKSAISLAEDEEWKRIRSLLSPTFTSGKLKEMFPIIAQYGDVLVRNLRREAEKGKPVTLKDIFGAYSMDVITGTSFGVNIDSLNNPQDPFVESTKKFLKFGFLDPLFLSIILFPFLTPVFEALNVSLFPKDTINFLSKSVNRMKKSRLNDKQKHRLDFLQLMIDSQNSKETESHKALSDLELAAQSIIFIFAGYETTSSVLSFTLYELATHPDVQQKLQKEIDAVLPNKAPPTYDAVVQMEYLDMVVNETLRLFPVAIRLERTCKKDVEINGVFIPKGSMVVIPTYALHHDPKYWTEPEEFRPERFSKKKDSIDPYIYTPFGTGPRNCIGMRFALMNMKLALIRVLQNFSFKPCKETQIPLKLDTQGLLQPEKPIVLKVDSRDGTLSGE

As to `COc1cc(O[C@H]2C(C)(C)[C@H](NC(=O)c3ccc(N4CCC(CN5CCN(c6ccc(C(=O)N[C@H]7CCC(=O)NC7=O)c(F)c6)CC5)CC4)cc3)C2(C)C)ccc1C#N` [Compound A, 4-(4-((1-(4-(((1R,3R)-3-(4-cyano-3-methoxyphenoxy)-2,2,4,4-tetramethylcyclobutyl)carbamoyl)phenyl)piperidin-4-yl)methyl)piperazin-1-yl)-N—((S)-2,6-dioxopiperidin-3-yl)-2-fluorobenzamide], the half-maximal inhibitory concentration (IC50) in data set [1] was over 3.75 µM; in data set [4] (setting [7]), over 15 µM; in data set [4] (setting [8]) it was over 15 µM; in data set [5], 0.21 µM; in data set [6] (setting [7]), over 15 µM; in data set [6] (setting [8]), over 15 µM. Moreover, in data set [2] (all CYPs, up to 15 µM tested), the “Direct inhibition, maximal inhibition” value was at most 12%. Further, the “TDI (time-dependent inhibition)” value in data set [2] (all CYPs, up to 15 µM tested) was at most 15%. The “Direct or time-dependent inhibition” value in data set [2] (any of the CYP isoforms, 0.2-15 µM) is reported as “no direct or time-dependent inhibition was observed”. The “Loss of Compound A in CYP3A5” value in data set [3] is on record as at most 23%. In addition, the inhibition at 1 µM in data set [5] (human, probe Rosuvastatin (1 μM), read-out: Maximal % Inhibition) was determined as 95%.

(Values after patent US20250009737A1, “COMPOUNDS AND METHODS FOR THE TARGETED DEGRADATION OF ANDROGEN RECEPTOR” (Arvinas Operations, Inc., priority 2023, published 2025).)
